In US10858367B2, “Compounds” (GLAXOSMITHKLINE INTELLECTUAL PROPERTY DEVELOPMENT LIMITED, priority 2017, dated 2020):

biological target: T1, LRRK2 Ser935 phosphorylation in SH-SY5Y cells over-expressing recombinant full length LRRK2 (Homo sapiens, UniProt Q5S007); assay: Recombinant cellular LRRK2 AlphaScreen assay; format: cell-based; conditions: human neuroblastoma SH-SY5Y cells, BacMam full length LRRK2, 60 minutes with compound, read-out: pIC50 in the recombinant cellular LRRK2 AlphaScreen assay (converted)
T1 construct: A BacMam virus expressing full length recombinant LRRK2 was purchased from Invitrogen; host or cells: SH-SY5Y human neuroblastoma cells transduced with BacMam LRRK2 virus
Excerpt: b. Recombinant Cellular LRRK2 AlphaScreen Assay
To determine the activity of compounds against LRRK2 kinase activity in cells, the observed LRRK2 kinase-dependent modulation of LRRK2 Ser 935 phosphorylation (Dzamko et al., 2010, Biochem. J. 430: 405-413) was utilized to develop a quantitative 384 well plate-based immunoassay of LRRK2 Ser935 phosphorylation in the human neuroblastoma cell line SH-SY5Y, engineered to over-express recombinant full length LRRK2 protein.
A BacMam virus expressing full length recombinant LRRK2 was purchased from Invitrogen and amplified by inoculation of SF-9 cells at MOI 0.3 for 4-5 days in Sf-900 III SFM medium supplemented with 3% fetal bovine serum. Infected cell cultures were then centrifuged at 2000 g for 20 minutes, viral supernatant titer determined by anti-gp64 plaque assay and stored at 4° C.
Affinity-purified anti-phospho LRRK2 Ser935 sheep polyclonal antibody (Dzamko et al., 2010, Biochem. J. 430: 405-413) was biotinylated by standard methods (PerkinElmer). Anti-LRRK2 rabbit polyclonal antibody was purchased from Novus Biologicals. AlphaScreen Protein A IgG Kit (including acceptor and donor beads) was purchased from Perkin Elmer.
SH-SY5Y cells were grown in DMEM/F12 medium with 10% dialysed fetal bovine serum and harvested by treatment with 0.5% trypsin-EDTA for 5 minutes at 37° C. followed by centrifugation at 1000 rpm for 4 minutes. The cell pellet was resuspended in Opti-MEM reduced serum media (Invitrogen) at 200,000 cells/ml and mixed with the BacMam LRRK2 virus at MOI=50. 50 μl cell solutions were then dispensed to each well of a 384-well plate and incubated at 37° C., 5% CO2 for 24 hours.
Serial dilutions of test compounds were prepared in Opti-MEM reduced serum media (Invitrogen) and 5.6 ul transferred from compound plate to cell assay plate to achieve a top final assay concentration of 10 uM. DMSO was used in certain wells as controls. Cells were incubated at 37° C., 5% CO2 for 60 minutes. The medium was then removed and cells lysed by addition of 20 ul cell lysis buffer (Cell Signaling Technology) and incubation at 4° C. for 20 minutes. 10 ul of antibody/acceptor bead mix [(1/1000 biotinylated-pS935 LRRK2 antibody, 1/1000 total-LRRK2 antibody, 1/100 Acceptor beads in AlphaScreen detection buffer (25 mM Hepes (pH 7.4), 0.5% Triton X-100, 1 mg/ml Dextran 500 and 0.1% BSA)] was then added to each well and plates incubated for 2 hours at ambient temperature in the dark. 10 μl of donor beads solution (1/33.3 donor beads in AlphaScreen detection buffer) was then added to each well. Following incubation for a further 2 hours at ambient temperature in the dark, plates were read on an EnVision™ plate reader at emission 520-620 nm with excitation 680 nm. Dose response curve data was based on sigmoidal dose-response model.

T1 sequence (Q5S007 whole entry): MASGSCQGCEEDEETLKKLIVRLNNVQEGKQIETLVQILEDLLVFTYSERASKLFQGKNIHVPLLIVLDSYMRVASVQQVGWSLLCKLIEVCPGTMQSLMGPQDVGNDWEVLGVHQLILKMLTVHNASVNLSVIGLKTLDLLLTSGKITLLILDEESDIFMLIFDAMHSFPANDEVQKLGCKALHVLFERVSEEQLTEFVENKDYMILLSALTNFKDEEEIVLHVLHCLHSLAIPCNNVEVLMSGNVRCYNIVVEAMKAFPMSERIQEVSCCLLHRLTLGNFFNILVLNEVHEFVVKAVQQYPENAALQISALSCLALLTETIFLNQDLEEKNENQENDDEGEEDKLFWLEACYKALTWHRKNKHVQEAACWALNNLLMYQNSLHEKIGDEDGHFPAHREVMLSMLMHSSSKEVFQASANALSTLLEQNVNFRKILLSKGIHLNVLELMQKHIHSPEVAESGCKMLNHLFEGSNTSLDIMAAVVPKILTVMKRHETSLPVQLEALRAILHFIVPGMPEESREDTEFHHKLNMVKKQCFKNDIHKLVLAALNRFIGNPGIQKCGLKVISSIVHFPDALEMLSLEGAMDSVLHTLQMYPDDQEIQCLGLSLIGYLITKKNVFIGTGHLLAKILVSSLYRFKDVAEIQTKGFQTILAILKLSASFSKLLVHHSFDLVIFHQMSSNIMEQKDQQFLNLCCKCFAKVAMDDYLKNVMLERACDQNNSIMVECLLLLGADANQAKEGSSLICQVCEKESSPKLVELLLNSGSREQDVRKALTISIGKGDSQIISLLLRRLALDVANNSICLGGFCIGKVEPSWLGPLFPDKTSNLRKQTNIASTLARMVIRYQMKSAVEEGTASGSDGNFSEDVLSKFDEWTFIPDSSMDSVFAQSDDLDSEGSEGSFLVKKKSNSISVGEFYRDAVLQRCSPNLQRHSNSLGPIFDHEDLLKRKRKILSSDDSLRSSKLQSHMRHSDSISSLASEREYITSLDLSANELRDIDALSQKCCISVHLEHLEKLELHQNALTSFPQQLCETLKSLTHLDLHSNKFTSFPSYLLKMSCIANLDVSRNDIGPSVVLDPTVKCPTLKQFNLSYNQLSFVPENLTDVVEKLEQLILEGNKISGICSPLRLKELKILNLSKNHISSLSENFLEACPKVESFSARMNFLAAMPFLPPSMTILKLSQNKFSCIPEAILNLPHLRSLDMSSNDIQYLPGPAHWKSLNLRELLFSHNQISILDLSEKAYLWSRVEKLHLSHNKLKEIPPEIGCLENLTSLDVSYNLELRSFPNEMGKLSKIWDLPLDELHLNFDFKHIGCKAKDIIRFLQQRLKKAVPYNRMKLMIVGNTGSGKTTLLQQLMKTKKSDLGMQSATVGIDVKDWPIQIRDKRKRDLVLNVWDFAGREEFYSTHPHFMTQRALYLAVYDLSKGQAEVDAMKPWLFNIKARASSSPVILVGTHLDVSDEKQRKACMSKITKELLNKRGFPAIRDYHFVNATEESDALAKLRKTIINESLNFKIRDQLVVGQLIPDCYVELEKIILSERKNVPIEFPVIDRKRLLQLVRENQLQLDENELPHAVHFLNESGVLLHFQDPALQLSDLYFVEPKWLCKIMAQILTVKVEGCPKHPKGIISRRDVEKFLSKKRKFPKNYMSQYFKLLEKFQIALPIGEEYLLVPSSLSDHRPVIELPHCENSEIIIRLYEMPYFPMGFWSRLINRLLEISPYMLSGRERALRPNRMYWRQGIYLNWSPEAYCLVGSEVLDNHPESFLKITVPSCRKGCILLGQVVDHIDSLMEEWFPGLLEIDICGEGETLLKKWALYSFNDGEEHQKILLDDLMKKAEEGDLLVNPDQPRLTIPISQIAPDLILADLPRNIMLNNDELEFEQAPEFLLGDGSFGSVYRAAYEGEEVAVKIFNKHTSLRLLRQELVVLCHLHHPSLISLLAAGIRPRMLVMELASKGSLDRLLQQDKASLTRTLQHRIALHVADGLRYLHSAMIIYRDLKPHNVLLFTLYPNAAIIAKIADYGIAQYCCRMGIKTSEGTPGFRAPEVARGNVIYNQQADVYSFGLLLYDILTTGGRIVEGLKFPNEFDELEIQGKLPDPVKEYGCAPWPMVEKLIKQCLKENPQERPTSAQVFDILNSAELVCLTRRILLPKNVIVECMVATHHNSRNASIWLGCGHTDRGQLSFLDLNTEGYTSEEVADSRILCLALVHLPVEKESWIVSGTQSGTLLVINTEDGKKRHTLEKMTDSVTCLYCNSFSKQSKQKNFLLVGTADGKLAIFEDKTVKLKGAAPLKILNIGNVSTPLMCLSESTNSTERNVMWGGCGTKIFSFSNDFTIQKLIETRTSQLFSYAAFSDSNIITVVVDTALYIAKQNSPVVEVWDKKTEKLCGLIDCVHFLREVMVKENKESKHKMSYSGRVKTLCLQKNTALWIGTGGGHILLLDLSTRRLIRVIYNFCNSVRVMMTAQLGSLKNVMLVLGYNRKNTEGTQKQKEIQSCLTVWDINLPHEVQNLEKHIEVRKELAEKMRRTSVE

IC50 | Compound
≤ 1000 nM | COc1nc(N2C[C@@H]3C[C@H]2CO3)cc(-n2ncc3cc(C)c(C4CCN(CCC(=O)O)CC4)cc32)n1 [Example E165, 3-(4-(1-(6-((1S,4S)-2-oxa-5-azabicyclo[2.2.1]heptan-5-yl)-2-methoxypyrimidin-4-yl)-5-methyl-1H-indazol-6-yl)piperidin-1-yl)propanoic Acid]
≤ 1000 nM | COc1nc(N2CC3CC2CO3)cc(-n2ncc3cc(C)c(C4CCN(C5COC5)CC4O)cc32)n1 (single isomer, unassigned) [Example E132]
≤ 1000 nM | COc1nc(N2C[C@H]3C[C@@H]2CO3)cc(-n2ncc3cc(C)c(C4CCN(C5CCOC5)CC4)cc32)n1 (single isomer, unassigned) [Example E13]
≤ 1000 nM | Cc1nc(N2CC3CC2CO3)cc(-n2ncc3cc(C)c([C@H]4CC[C@](C)(O)CC4)cc32)n1 (single isomer, unassigned) [Example E10]
≤ 1000 nM | COc1nc(N2CC3CCC(C2)O3)cc(-n2ncc3cc(C)c(C4CCN(C5COC5)CC4)cc32)n1 [Example E41, 3-(2-Methoxy-6-(5-methyl-6-(1-(oxetan-3-yl)piperidin-4-yl)-1H-indazol-1-yl)pyrimidin-4-yl)-8-oxa-3-azabicyclo[3.2.1]octane]
≤ 10 nM | [2H]C1(N2CCC(c3cc4c(cnn4-c4cc(N5C[C@H]6C[C@@H]5CO6)nc(OC)n4)cc3C)CC2)COC1 [Example E56, (1R,4R)-5-(6-(6-(1-(3-deuterooxetan-3-yl)piperidin-4-yl)-5-methyl-1H-indazol-1-yl)-2-methoxypyrimidin-4-yl)-2-oxa-5-azabicyclo[2.2.1]heptane]
≤ 1000 nM | COc1nc(N2CC3CCC2CO3)cc(-n2ncc3cc(C)c(C4CCN(C5CCOC5)CC4)cc32)n1 (single isomer, unassigned) [Example E64, 5-(2-methoxy-6-(5-methyl-6-(1-(tetrahydrofuran-3-yl)piperidin-4-yl)-1H-indazol-1-yl)pyrimidin-4-yl)-2-oxa-5-azabicyclo[2.2.2]octane]
≤ 1000 nM | Cc1nc(N2C[C@H]3C[C@@H]2CO3)cc(-n2ncc3cc(C)c(C4CCN(CCO)CC4)cc32)n1 [Example E51, 2-(4-(1-(6-((1R,4R)-2-oxa-5-azabicyclo[2.2.1]heptan-5-yl)-2-methylpyrimidin-4-yl)-5-methyl-1H-indazol-6-yl)piperidin-1-yl)ethanol]
≤ 1000 nM | COc1nc(N2CC3CCC(C2)O3)cc(-n2ncc3cc(C)c(C4CCNCC4)cc32)n1 [Example E62, 3-(2-methoxy-6-(5-methyl-6-(piperidin-4-yl)-1H-indazol-1-yl)pyrimidin-4-yl)-8-oxa-3-azabicyclo[3.2.1]octane 2,2,2-trifluoroacetate]
≤ 10 nM | COc1nc(N2CC3CC2CO3)cc(-n2ncc3cc(C)c(C4CCN(CCO)CC4F)cc32)n1 (single isomer, unassigned) [Example E18]
≤ 10 nM | Cc1nc(N2CC3CC2CC3C(=O)O)cc(-n2ncc3cc(C)c(C4CCC(C)(O)CC4)cc32)n1 (single isomer, unassigned) [Example E75, 2-(6-(6-(cis-4-hydroxy-4-methylcyclohexyl)-5-methyl-1H-indazol-1-yl)-2-methylpyrimidin-4-yl)-2-azabicyclo[2.2.1]heptane-5-carboxylic Acid]
≤ 1000 nM | Cc1nc(N2C[C@H]3C[C@@H]2CO3)cc(-n2ncc3cc(C)c(C4CCN(C5CCOC5)CC4F)cc32)n1 (single isomer, unassigned) [Example E149]
≤ 1000 nM | Cc1nc(N2C[C@@H]3C[C@H]2CO3)cc(-n2ncc3cc(C)c(C4CCN(C5COC5)CC4)cc32)n1 [Example E40, (1S,4S)-5-(2-methyl-6-(5-methyl-6-(1-(oxetan-3-yl)piperidin-4-yl)-1H-indazol-1-yl)pyrimidin-4-yl)-2-oxa-5-azabicyclo[2.2.1]heptane]
≤ 1000 nM | Cc1nc(N2CC3CCC(C2)O3)cc(-n2ncc3cc(C)c(C4CCN(C5COC5)CC4)cc32)n1 [Example E42, 3-(2-Methyl-6-(5-methyl-6-(1-(oxetan-3-yl)piperidin-4-yl)-1H-indazol-1-yl)pyrimidin-4-yl)-8-oxa-3-azabicyclo[3.2.1]octane]
≤ 1000 nM | COc1nc(N2CC3CC2CO3)cc(-n2ncc3cc(C)c(C4CCN(C5CCOC5)CC4O)cc32)n1 (single isomer, unassigned) [Example E135]
≤ 1000 nM | COc1nc(N2C[C@H]3C[C@@H]2CO3)cc(-n2ncc3cc(C)c(C4CCN(CCF)CC4)cc32)n1 [Example E37, (1R,4R)-5-(6-(6-(1-(2-fluoroethyl)piperidin-4-yl)-5-methyl-1H-indazol-1-yl)-2-methoxypyrimidin-4-yl)-2-oxa-5-azabicyclo[2.2.1]heptane]
≤ 1000 nM | Cc1nc(N2CC3(CO)CC2CO3)cc(-n2ncc3cc(C)c(C4CCN(C5CCOC5)CC4)cc32)n1 (single isomer, unassigned) [Example E153, (5-(2-methyl-6-(5-methyl-6-(1-(tetrahydrofuran-3-yl)piperidin-4-yl)-1H-indazol-1-yl)pyrimidin-4-yl)-2-oxa-5-azabicyclo[2.2.1]heptan-1-yl)methanol]
1070 nM | Cc1nc(N2C[C@H]3C[C@@H]2CN3C2COC2)cc(-n2ncc3cc(C)c([C@H]4CC[C@](C)(O)CC4)cc32)n1 [Example E31, Trans-1-methyl-4-(5-methyl-1-(2-methyl-6-((1R,4R)-5-(oxetan-3-yl)-2,5-diazabicyclo[2.2.1]heptan-2-yl)pyrimidin-4-yl)-1H-indazol-6-yl)cyclohexanol]
≤ 1000 nM | Cc1nc(N2C[C@H]3C[C@@H]2CO3)cc(-n2ncc3cc(C)c(C4CCN(C(=O)CO)CC4)cc32)n1 [Example E53, 1-(4-(1-(6-((1R,4R)-2-oxa-5-azabicyclo[2.2.1]heptan-5-yl)-2-methylpyrimidin-4-yl)-5-methyl-1H-indazol-6-yl)piperidin-1-yl)-2-hydroxyethanone]
≤ 1000 nM | Cc1nc(N2C[C@H]3C[C@@H]2CO3)cc(-n2ncc3cc(Cl)c(C4CCN(C5COC5)CC4)cc32)n1 [Example E25, (1R,4R)-5-(6-(5-chloro-6-(1-(oxetan-3-yl)piperidin-4-yl)-1H-indazol-1-yl)-2-methylpyrimidin-4-yl)-2-oxa-5-azabicyclo[2.2.1]heptane]
≤ 1000 nM | COc1nc(N2C[C@@H]3C[C@H]2CO3)cc(-n2ncc3cc(C)c(C4CCN(CCC(=O)O)CC4F)cc32)n1 (single isomer, unassigned) [Example E161]
≤ 1000 nM | Cc1nc(N2C[C@H]3C[C@@H]2CO3)cc(-n2ncc3cc(C)c(C4C5CN(CCS(C)(=O)=O)CC54)cc32)n1 (stereo partly drawn) [Example E180, (1R,4R)-5-(2-methyl-6-(5-methyl-6-(3-(2-(methylsulfonyl)ethyl)-3-azabicyclo[3.1.0]hexan-6-yl)-1H-indazol-1-yl)pyrimidin-4-yl)-2-oxa-5-azabicyclo[2.2.1]heptane]
≤ 1000 nM | Cc1nc(N2CC3CC2CN3C2COC2)cc(-n2ncc3cc(C)c([C@H]4CC[C@@](C)(O)CC4)cc32)n1 (stereo partly drawn) [Example E30, Cis-1-methyl-4-(5-methyl-1-(2-methyl-6-((1S,4S)-5-(oxetan-3-yl)-2,5-diazabicyclo[2.2.1]heptan-2-yl)pyrimidin-4-yl)-1H-indazol-6-yl)cyclohexanol]

Compound | IC50
Cc1nc(N2CC3CC(C2)C3C(=O)O)cc(-n2ncc3cc(C)c(C4CCC(C)(O)CC4)cc32)n1 (single isomer, unassigned) [Example E78, Cis-3-{6-[6-(4-Hydroxy-4-methyl-cyclohexyl)-5-methyl-indazol-1-yl]-2-methyl-pyrimidin-4-yl}-3-aza-bicyclo[3.1.1]heptane-6-carboxylic Acid] | ≤ 10 nM
Cc1nc(N2C3CCC2COC3)cc(-n2ncc3cc(C)c(C4CCN(C5COC5)CC4)cc32)n1 [Example E45, 8-(2-methyl-6-(5-methyl-6-(1-(oxetan-3-yl)piperidin-4-yl)-1H-indazol-1-yl)pyrimidin-4-yl)-3-oxa-8-azabicyclo[3.2.1]octane] | ≤ 1000 nM
